“And” between values parts separate entries of the source, which are not always exact repeats. Equal values may be shown once.
Biological target: T1, recombinant human NNMT (Homo sapiens, UniProt P40261)
T1 sequence (P40261 1-264): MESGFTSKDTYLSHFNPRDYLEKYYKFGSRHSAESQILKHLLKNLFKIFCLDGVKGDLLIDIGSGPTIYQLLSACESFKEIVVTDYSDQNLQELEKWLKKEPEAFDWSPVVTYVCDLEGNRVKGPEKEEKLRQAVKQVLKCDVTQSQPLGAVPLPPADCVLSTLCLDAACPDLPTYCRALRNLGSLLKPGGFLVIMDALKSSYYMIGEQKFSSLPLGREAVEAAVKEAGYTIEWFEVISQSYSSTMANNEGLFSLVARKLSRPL
Experiment: in vitro NNMT enzyme inhibition assay (Promega MTase-Glo Methyltransferase Assay)
Assay type: biochemical
Details: 40 nM recombinant human NNMT, 8 μM nicotinamide, 6.7 μM SAM, 20 minutes
Method: NNMT biochemical activity for was evaluated using the Promega Mtase-Glo Methyltransferase Assay kit. Assays were performed in a white, flat-bottomed 96 well plate. […] Reactions were performed for 20 minutes at room temperature. MTase-Glo reagent and MTase-Glo detection solution were added according to manufacturer's instructions and luminescence signal measured with a SpectraMax i3 plate reader and data analyzed with GraphPad Prism version 9. Scheme 16 depicts a visual summary of the Promega MTase-Glo Methyltransferase assay used to assess biochemical activity of novel inhibitors.

Compound: C[C@@H]1Cc2cc(C(N)=O)cnc2N1 [Compound 11, (2R)-2-methyl-2,3-dihydro-1H-pyrrolo[2,3-b]pyridine-5-carboxamide]
- IC50: 35 nM and 35 to 42 nM
